{
  "source": "patent US20200001302A1",
  "about": "“MICROFLUIDIC DEVICES, SYSTEMS, INFRASTRUCTURES, USES THEREOF AND METHODS FOR GENETIC ENGINEERING USING SAME” (VALORBEC, SOCIÉTÉ EN COMMANDITE, priority 2018, published 2020)",
  "molecules": {"B1": {"name": "beta-glucosidase: β-glucosidase (BGL) from Thermobaculum terrenum in BL21(DE3) cell lysate, plasmid pET_BGL1 of Example 1 (protein, listed as Thermobaculum terrenum)", "chain": "MKHLVTTLLFGLVFAAAVRAQSSRVDSLLAAMTLAEKISLLHGAIDPTGEAGAGYVPGVPRLGIPAMRLTDGPAGIRTRHPATALPAPVALAASFDPELAYRYGHVMGIEGRARRHEVLLSPMVNIVRVPEAGRNFETFSEDPLLSAEMVAAEVRGIQDAGMMATVKHYVANNFENDRMRVNVVVDERTLREIYLPGFEAAIKAGAAAVMCAYNRVNGPYACDNEMLLTDILRDEWGFEGWVMTDWFAGHSLESLVRGLDQEMPGYTIPFSSPDMPLAPAVFADSLLAAVESGRIDEAYVDRAVRRILVQMEQFGLLDGESTPPEINIEAHAAVAREVAEAGAVLLRNENQTLPLSERDLQHLVVIGPTATRPLIGGGGSSRVQPFRTTSTLAALQELAGPQAQIRYVPGIDLDGMPVPSSALRTPDGQPGLLRQGADGTTQVDAQLDFTGERALPPGSQWTWTGTLTAPTAGVYELKLQTAGGVGTLSIDGQPVLRTGMFFSDASLIPTADSLENATYRIELQAGQQLSLTVQISGQVPSLPFLPAGQNPVQVRLAWVTPERRAAFLEEAAEAARAAHAAIVFVYEEGTEGRDRETLALRPDQDALVEAVAAANPRTTVVMNVGAPTLMPWAERVGAILLMWYPGQEGGWATADVLLGRANPAGRLPVTFPRRAEDAPTASPERYPGVDLTARYDEGIFVGYRWYDAQQIEPLFPFGHGLSYTTFAYENLRVEPDGDGFVVRFVVRNTGDRAGSDVPQVYLGPPENPPVPMAVRQLVGFRRVTLAPGEAQEVTVRIDGRALSYWSVEDHAWVKATGRRTLYVGASARDLRLQTEIDVQ"}},
  "key": {"H1299 cells [1]": {"system": "H1299 cells", "test": "Cell viability over 7 days after RAF1 gene editing and sorafenib tosylate (FIG. 50)", "type": "cell-based, Human", "conditions": "cells with both pCRISPR targeting RAF1 and 15 micromolar sorafenib tosylate added on day 2; after day 4", "experimental": "MAPK/ERK pathway experiments. The MAPK/ERK pathway experiments used two key components: CRISPR-Cas9 genomic disruption of Raf1 and drug inhibition using sorafenib tosylate. In the macroscale, 0.75×10^5 cells/mL of H1299 cells were seeded on day 0 in 24-well plates. 600 ng of the pCRISPR plasmid targeting eGFP (control) or RAF1 was applied to the wells containing the cells on day 1. On day 3, drug conditions were added at different concentrations: 0 micromolar, 7.5 micromolar, 15 micromolar, 30 micromolar, 60 micromolar, 120 micromolar which were diluted in complete media. On day 5, 5 micromolar Calcein-AM violet stain (λex, lambda(ex)=408 nm and λem, lambda(em)=450 nm) diluted in 250 microliters fresh serum-free media was added to the cells and incubated at 37° C. for 30 min. The viability of cells was assessed by performing a fluorescence well scan using the CLARIOStar well-plate reader. The measured fluorescence was normalized to the control to determine the percent viability.\nTo assess the coupled effects of genome editing and drug inhibition, the H1299 cells with a pCRISPR targeting RAF1 or a control sgRNA were transfected and 15 micromolar sorafenib tosylate was added on day 2. […]\nFour conditions were tested by acquiring fluorescent measurements over 7 days to assess proliferation. […] All readings were taken in triplicate and error bars represent +/−1 s.d."}, "H1299 cells [2]": {"system": "H1299 cells", "test": "On-chip (ACE digital microfluidic) sorafenib dose-response, cell viability by Calcein-AM cell count", "type": "cell-based, Human", "conditions": "for IC50: Homo sapiens", "source_text": "Similarly, in the microscale, the transfection protocol is followed for seeding cells and the 7-step protocol for transfection of the pCRISPR plasmid containing sgRNA targeting eGFP or Raf-1. The standard step 7 was replaced with step 7a and step 7b. In step 7a, sorafenib tosylate in complete media was actively dispensed into unit droplets and then diluted in liquid media to form six different concentrations (0 micromolar, 7.5 micromolar, 15 micromolar, 30 micromolar, 60 micromolar, 120 micromolar) of which one droplet (0.7 microliters) was used to passively dispense onto each hydrophilic spot and the other droplet was saved for future dilutions. After all cells were interrogated with the drugs, they were incubated for two days. In step 7b, six unit droplets of 5 micromolar Calcein-AM violet stain were passively dispensed to the cells and incubated for 30 min in which images were taken to count the cells using a single module imaging pipeline. Calcein-stained image was smoothed with a Gaussian filter (G, sigma=1) and used the Otsu Global thresholding method to detect objects with diameters of 20-100 pixel units (two classes, threshold correction factor=1.25). Neighboring pixels are grouped into objects and undesired clumped objects (e.g., two close overlapping objects) are declumped using intensity segregation. The counted cells were normalized to the control (e.g., cell interrogated with no drugs). All curves were fit with a sigmoid function and probed for statistical significance using an F-test in the linear region.\nTo verify the effects of targeting RAF1 by genome editing and enzymatic inhibition, H1299 cells were cultured, edited, assayed, and analyzed on the ACE platform following procedures for measuring transfection and knockout efficiencies. Images of the lung cancer cells that are transfected with and without pCRISPR targeting RAF1 and treated with the sorafenib inhibitor are analysed using the standardized imaging pipeline (FIG. 39B, FIG. 51). […] The effects of RAF protein kinase inhibitor sorafenib tosylate with and without CRISPR-mediated RAF1 targeting were examined."}, "[3]": {"system": "RFP gene downstream of a T7 promoter in E. coli", "test": "IPTG inducer concentration optimization, RFP expression dose-response (AIMS and macro-scale)", "type": "cell-based", "conditions": "after four hours", "experimental": "For inducer concentration optimization carried out in the macroscale, starter cultures with a RFP plasmid were prepared at OD 0.1 from overnight inoculations. The cultures were grown at 37° C. with shaking and were induced upon reaching OD 0.4. 45 mL of the culture was induced at 200 micromolar and diluted with fresh media to generate the following IPTG concentrations: 200, 133.3, 88.9, 59.3, 40, 26.7, 17.8, and 11.9 micromolar. These sub-cultures were prepared in triplicates along with a non-induced control and were induced at 37° C. and shaken for 4 hours. After induction, 200 microliters of each culture were loaded onto a 96-well plate and fluorescence at 612 nm was measured with 582 nm excitation on a TECAN Infinite M200 plate reader (Mannedorf, Switzerland) with the settings: gain of 75, 25 flashes and 20 microseconds integration time. The fluorescence intensity with increasing IPTG concentration was plotted on a logarithmic scale to generate a dose-response curve.\nIn the inducer concentration optimization program, three unit droplets of 1.42 microliters containing transformed RFP-cells were dispensed from the culture region and mixed with 0.3 microliters of 3.24 mM IPTG. This droplet was actuated to an empty reservoir and one daughter droplet was split from this reservoir and actuated to the incubation region. […]"}, "[4]": {"test": "BGL off-chip assay in well plate, absorbance at 405 nm", "type": "biochemical, Thermobaculum terrenum", "conditions": "well-plate reader", "experimental": "Referring to FIG. 16, there is shown off-chip enzymatic assay with an absorbance readout as a function of time were collected every 30 min. Nine reactions containing equal volume of lysate with enzyme and substrate were mixed in a well of a 96 well plate. At 30 min intervals, the reaction was arrested by glycine-NaOH solution and an absorbance measurement was acquired from the product formation of pNP which gave a yellow color. Each experiment was repeated three times, and error bars are +/−1 SD.\nProtein expression. The plasmid containing the cloned BGL1 gene was first transformed into E. coli BL21(DE3) for recombinant expression. The transformed cells were inoculated overnight in a 5 mL pre-culture. The following day, the culture was diluted to OD 0.05 in a 100 mL starter culture and grown at 37° C. with 200 rpm shaking. Upon reaching OD 0.4, expression of the BGL1 gene was induced by addition of 1 mM IPTG and induction was carried out under the same growth conditions for 8 hours. […]\nBGL off-chip assay. […] Absorbance at 405 nm was immediately acquired after stopping each reaction on a TECAN infinite M200 plate reader with the following settings: 9 nm bandwidth, single reads per well, 25 flashes per reading, and 0 ms of settle time. Reactions with absorbance units >4 were diluted and the final absorbance was calculated from the diluted sample. […]"}, "[5]": {"test": "On-chip beta-glucosidase colorimetric assay, blue channel pixel intensity (image-based feedback system)", "type": "biochemical, Thermobaculum terrenum", "quoted_text": "The assay on-chip included three different solutions loaded onto the DMF device reservoirs. First, a unit droplet of cell lysate was dispensed and actuated to each of the four assay mixing areas (see FIG. 5 for DMF design) using a starting voltage of 230 VRMS at 15 kHz. The lysate was prepared from a colony of BL21(DE3) transformed with a plasmid containing beta-glucosidase (BGL) gene (see FIG. 6 and FIG. 7 for plasmid map and sequence (SEQ ID NO: 1) respectively) that was grown at 37° C. and induced at 0.4 O.D (˜1.75 h starting at 0.1 O.D). The assay started by the addition of a droplet containing substrate to a droplet of cell lysate. The substrate solution contained 50 mM sodium citrate at pH 7.0 and 4 mM 4-nitrophenyl beta-D-glucopyranoside (MUG). The reactions were incubated at different times (0, 40, 80, and 120 min) and arrested by the addition of a unit droplet of 0.3 M Glycine-NaOH on the assay areas on the device. Solutions contained 0.05% final concentration of F-68 Pluronics. […]\nThe typical model for analyzing kinetics of a beta-glucosidase enzyme is to use a chromogenic model substrate para-nitrophenyl-beta-glucoside (pNPG) that will produce glucose and para-nitrophenol upon hydrolysis (FIG. 14). The liberation of para-nitrophenol (pNP) gives a yellow color product which can be monitored by an image-based feedback system. […]"}},
  "note": "Where a name gives a salt, the structure may show the parent alone. Read-outs that look alike come from different tables or passages of the source.",
  "data": [
    {"molecule": "CNC(=O)c1cc(Oc2ccc(NC(=O)Nc3ccc(Cl)c(C(F)(F)F)c3)cc2)ccn1", "note": "[sorafenib, sorafenib tosylate]", "values": [
      {"measurement": "basal viability level", "setting": "H1299 cells [1]", "value": "~25", "unit": "%"},
      {"measurement": "IC50", "setting": "H1299 cells [2]; NCI-H1299, read-out: inhibitory sorafenib concentration achieving half-maximal viability level (IC50), on-chip, cells transfected with pCRISPR targeting RAF1, fitted sigmoid curve", "value": 13.2, "unit": "µM"},
      {"measurement": "IC50", "setting": "H1299 cells [2]; NCI-H1299, read-out: inhibitory sorafenib concentration achieving half-maximal viability level (IC50), on-chip, control (guide targeting eGFP), fitted sigmoid curve", "value": 7.54, "unit": "µM"},
      {"measurement": "sensitivity in the linear micromolar range", "setting": "H1299 cells [2]; edited H1299 cells with CRISPR-mediated RAF1 targeting", "value": "7 to 35", "unit": "µM"},
      {"measurement": "fold reduction of IC50 with pCRISPR targeting RAF1 versus control", "setting": "H1299 cells [2]; on-chip", "value": "~1.8", "unit": "fold"}
    ]},
    {"molecule": "CC(C)S[C@@H]1O[C@H](CO)[C@H](O)[C@H](O)[C@H]1O", "note": "[IPTG, isopropyl beta-D-1-thiogalactopyranoside]", "values": [
      {"measurement": "IPTG concentration at which protein production was constant (comparable to basal levels)", "setting": "[3]", "value": "< 30", "unit": "µM"},
      {"measurement": "IPTG concentration giving highest protein production", "setting": "[3]; induced at OD 0.4", "value": "above 200 micromolar"}
    ]},
    {"molecule": "B1", "values": [
      {"measurement": "first order rate constant kPLATE", "setting": "[4]", "value": 0.504, "unit": "h⁻¹"},
      {"measurement": "first order rate constant kDMF", "setting": "[5]", "value": "4.64e-05", "unit": "s⁻¹"}
    ]}
  ]
}
